Measurements taken from ChEMBL document CHEMBL1201862, “PubChem BioAssay data set” (2004).
Calls of active or inactive are those of the source.

Tests used:
[1] = Vero E6 cell cytotoxicity, dose response, cytotoxicity control for non-replicating M. tuberculosis project, secondary assay (AID 492998); type: functional, VeroE6; conditions: Vero C1008
[2] = HepG2 cell cytotoxicity, dose response, cytotoxicity control for non-replicating M. tuberculosis project (AID 489018); type: functional; conditions: Mycobacterium tuberculosis
Jurkat = experiment: SAR Analysis of small molecule inhibitors of T-cell specific antigen receptor-induced NF-kB activation in a Jurkat cell line using a luminescence assay - Set 2. [Related pubchem assays (depositor defined):AID435003, AID435012, AID465]; type: functional, cell-based; conditions: Homo sapiens
[3] = NIH-3T3 fibroblast cytotoxicity, dose response, cytotoxicity control, cell-based, fluorescence, Alamar Blue, secondary assay (AID 2327); type: functional;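 also: NIH-3T3 mouse fibroblasts cultured with fluconazole at 8 µg/mL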
HEK293 [4] = experiment: SAR Analysis of small molecule inhibitors of T-cell specific antigen receptor-induced NF-kB activation in a HEK-293T cell line using a luminescence assay - Set 2. [Related pubchem assays (depositor defined):AID435003, AID435012, AID489026]; type: functional, cell-based; conditions: Homo sapiens
[5] = THP-1 cell cytotoxicity, dose response, cytotoxicity control for non-replicating M. tuberculosis project (AID 489025); type: functional
HEK293 [6] = experiment: HEK293T cell viability loss, resazurin readout – resazurin fluorescence, cytotoxicity control for NF-kB activator project, SAR follow-up (AID 493251); type: functional, cell-based; conditions: Homo sapiens
cells = type: functional
[7] = fluconazole-exposed Candida albicans growth modulators – fluorescence, retest, confirmation (AID 2467); type: functional, cell-based
Cytochrome P450 2C19 = Cytochrome P450 2C19 (Homo sapiens, UniProt P33261); experiment: Cytochrome panel assay with activity outcomes. Panel member name: p450-cyp2c19 Compounds with AC50 equal or less than 10 uM are considered active; type: functional
Chain of Cytochrome P450 2C19 (P33261 whole entry): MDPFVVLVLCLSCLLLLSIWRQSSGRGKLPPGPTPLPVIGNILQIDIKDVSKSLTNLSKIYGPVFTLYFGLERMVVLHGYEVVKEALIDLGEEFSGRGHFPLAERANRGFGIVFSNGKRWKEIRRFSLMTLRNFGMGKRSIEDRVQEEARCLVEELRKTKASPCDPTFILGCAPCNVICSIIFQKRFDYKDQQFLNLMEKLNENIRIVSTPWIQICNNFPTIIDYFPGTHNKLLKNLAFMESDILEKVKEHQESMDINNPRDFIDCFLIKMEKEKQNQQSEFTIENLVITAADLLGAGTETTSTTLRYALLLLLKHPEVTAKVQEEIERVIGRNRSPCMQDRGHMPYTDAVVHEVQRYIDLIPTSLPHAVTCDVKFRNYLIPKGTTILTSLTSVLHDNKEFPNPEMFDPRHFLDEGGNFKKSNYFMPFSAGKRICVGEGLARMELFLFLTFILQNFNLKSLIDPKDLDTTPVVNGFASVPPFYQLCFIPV

Cytochrome P450 2D6 = Cytochrome P450 2D6 (Homo sapiens, UniProt P10635);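 also: CYP2D6 member of a cytochrome P450 panel assay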
Chain of Cytochrome P450 2D6 (P10635 whole entry): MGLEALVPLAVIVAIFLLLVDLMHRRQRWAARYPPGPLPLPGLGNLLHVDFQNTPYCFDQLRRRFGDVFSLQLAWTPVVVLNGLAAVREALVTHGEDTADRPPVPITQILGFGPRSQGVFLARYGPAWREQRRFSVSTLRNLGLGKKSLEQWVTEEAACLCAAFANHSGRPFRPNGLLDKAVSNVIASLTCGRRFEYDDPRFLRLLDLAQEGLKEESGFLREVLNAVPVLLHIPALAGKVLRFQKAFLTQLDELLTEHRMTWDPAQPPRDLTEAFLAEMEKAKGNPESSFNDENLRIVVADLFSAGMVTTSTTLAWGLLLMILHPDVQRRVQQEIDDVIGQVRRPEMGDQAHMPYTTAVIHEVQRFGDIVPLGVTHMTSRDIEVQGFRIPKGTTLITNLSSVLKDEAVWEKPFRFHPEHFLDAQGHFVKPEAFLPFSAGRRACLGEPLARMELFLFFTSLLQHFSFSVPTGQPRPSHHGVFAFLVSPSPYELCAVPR

[8] = target: Lysine-specific demethylase 4C (Homo sapiens, UniProt Q9H3R0); experiment: inhibition of JMJD2C H3K9me3 demethylation – biochemical, DELFIA europium, cherry-picked samples, dose response (AID 488835); type: functional
[9] = target: Lysine-specific demethylase 4A (Homo sapiens, UniProt O75164); experiment: inhibition of JMJD2A H3K9me3 demethylation – biochemical, DELFIA europium, cherry-picked samples, selectivity assay for GASC-1 inhibitor project, dose response (AID 488840)
Chain of Lysine-specific demethylase 4A (O75164 whole entry): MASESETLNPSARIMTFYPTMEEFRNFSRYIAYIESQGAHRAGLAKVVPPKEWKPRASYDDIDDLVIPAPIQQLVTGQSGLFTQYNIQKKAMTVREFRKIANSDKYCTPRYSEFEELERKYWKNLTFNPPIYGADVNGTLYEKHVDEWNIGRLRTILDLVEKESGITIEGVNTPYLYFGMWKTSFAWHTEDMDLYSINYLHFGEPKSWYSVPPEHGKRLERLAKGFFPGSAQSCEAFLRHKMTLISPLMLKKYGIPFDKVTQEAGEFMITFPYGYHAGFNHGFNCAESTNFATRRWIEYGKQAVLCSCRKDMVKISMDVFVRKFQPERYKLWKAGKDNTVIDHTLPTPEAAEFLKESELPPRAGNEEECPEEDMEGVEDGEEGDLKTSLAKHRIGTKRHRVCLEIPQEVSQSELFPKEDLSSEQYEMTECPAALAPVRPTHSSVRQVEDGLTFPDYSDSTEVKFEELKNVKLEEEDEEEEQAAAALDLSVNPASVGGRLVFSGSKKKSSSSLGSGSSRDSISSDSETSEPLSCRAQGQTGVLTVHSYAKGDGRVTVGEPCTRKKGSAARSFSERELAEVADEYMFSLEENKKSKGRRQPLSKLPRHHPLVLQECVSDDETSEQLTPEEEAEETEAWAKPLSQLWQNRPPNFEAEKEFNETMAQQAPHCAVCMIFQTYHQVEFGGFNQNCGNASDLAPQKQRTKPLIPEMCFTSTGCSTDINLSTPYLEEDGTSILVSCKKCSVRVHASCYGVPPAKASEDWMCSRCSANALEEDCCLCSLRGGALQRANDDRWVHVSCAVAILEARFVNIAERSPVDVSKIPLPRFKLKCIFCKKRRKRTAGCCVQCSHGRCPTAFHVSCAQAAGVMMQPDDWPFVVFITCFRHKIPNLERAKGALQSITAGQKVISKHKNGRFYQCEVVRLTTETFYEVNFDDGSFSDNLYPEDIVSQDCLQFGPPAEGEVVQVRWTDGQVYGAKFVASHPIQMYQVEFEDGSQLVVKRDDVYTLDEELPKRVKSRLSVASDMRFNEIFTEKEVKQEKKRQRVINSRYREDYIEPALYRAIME

Coagulation factor XII = target: T1, Coagulation factor XII (Homo sapiens, UniProt P00748); experiment: activated coagulation factor XII inhibitor potency, concentration-effect curve, cell-free (AID 716); type: functional
T1 sequence (P00748 whole entry): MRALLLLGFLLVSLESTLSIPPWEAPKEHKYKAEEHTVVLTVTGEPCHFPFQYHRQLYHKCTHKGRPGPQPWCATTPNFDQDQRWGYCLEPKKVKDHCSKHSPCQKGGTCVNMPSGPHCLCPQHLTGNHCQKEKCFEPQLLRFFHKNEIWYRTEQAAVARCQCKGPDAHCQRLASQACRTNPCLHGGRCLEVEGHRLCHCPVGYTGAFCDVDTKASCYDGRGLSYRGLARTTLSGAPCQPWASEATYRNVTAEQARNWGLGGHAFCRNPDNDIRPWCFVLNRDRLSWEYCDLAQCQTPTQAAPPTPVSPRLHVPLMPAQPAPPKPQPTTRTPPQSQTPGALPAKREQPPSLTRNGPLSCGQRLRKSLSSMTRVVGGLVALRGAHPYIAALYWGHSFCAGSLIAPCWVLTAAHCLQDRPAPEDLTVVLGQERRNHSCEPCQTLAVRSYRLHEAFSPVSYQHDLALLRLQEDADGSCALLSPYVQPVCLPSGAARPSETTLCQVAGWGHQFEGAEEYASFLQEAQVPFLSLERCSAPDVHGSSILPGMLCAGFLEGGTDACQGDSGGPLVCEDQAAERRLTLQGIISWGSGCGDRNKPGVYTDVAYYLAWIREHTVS

[10] = NIH3T3 cell viability loss – ATP luminescence, mouse fibroblasts, counter-screen, dose response (AID 2010); type: functional, cell-based;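 also: cells exposed to compound for about 90 hours before reading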
[11] = Trypanosoma cruzi growth suppression in host cells – NIH3T3 host cells, beta-gal luminescence, confirmation (AID 2044); type: functional, cell-based;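 also: intracellular parasites grown in NIH/3T3 mouse fibroblasts as host cells; luminescent beta-galactosidase reporter signal from transgenic T. cruzi replicating inside host cells; inhibitors lower the luminescence signal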
[12] = Luminescence Cell-Based/Microorganism Confirmation at Dose of Inhibitors of Trypanosoma cruzi Infection. [Related pubchem assays: 1885, 1968 ]; type: functional
[13] = T. cruzi infection blockers in NIH3T3 cells – beta-gal luminescence, NIH3T3 host cells, confirmation (AID 2630); type: functional, cell-based; conditions: Mus musculus
Cytochrome P450 3A4 = Cytochrome P450 3A4 (Homo sapiens, UniProt P08684);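 also: CYP3A4 tested as one member of a cytochrome P450 panel screen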
Chain of Cytochrome P450 3A4 (P08684 whole entry): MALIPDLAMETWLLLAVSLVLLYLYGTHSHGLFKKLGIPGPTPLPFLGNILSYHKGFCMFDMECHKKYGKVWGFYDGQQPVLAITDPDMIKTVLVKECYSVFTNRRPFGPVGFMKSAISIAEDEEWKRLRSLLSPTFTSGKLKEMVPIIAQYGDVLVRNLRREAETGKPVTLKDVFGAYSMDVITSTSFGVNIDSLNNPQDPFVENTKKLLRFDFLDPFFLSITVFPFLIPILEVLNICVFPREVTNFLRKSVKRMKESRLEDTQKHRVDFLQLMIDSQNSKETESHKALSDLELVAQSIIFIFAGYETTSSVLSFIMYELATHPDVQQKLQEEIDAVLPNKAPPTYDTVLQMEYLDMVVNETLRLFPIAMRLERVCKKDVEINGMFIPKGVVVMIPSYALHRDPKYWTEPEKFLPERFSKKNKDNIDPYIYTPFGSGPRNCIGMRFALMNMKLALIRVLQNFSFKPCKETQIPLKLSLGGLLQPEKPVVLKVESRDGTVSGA

Cytochrome P450 1A2 = target: T2, Cytochrome P450 1A2 (Homo sapiens, UniProt P05177);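 also: PubChem cytochrome P450 panel assay, CYP1A2 panel member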
T2 sequence (P05177 whole entry): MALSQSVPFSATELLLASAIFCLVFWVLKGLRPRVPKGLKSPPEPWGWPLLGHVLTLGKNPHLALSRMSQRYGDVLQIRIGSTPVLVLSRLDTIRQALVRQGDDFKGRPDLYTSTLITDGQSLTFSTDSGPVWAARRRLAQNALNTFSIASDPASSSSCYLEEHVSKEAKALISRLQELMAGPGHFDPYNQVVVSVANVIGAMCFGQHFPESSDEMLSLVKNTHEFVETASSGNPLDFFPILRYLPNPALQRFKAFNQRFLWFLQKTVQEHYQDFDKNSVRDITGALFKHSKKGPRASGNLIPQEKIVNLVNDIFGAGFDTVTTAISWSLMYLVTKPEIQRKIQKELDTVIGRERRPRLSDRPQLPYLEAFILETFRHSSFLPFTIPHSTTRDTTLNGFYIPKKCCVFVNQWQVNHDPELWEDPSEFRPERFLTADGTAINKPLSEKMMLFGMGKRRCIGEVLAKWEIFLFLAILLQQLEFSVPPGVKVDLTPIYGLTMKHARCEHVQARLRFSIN

[14] = viability of uninfected HEp-2 cells – cell-based, HTS, cytotoxicity control for RSV inhibitor project, dose response (AID 2410); type: functional; conditions: human respiratory syncytial virus
[15] = target: G-protein coupled receptor 55 (Homo sapiens, UniProt Q9Y2T6); experiment: inhibition of LPI-stimulated GPR55 beta-arrestin translocation – imaging, U2OS, beta-arrestin-GFP, LPI agonist, primary screen (AID 2013); type: functional;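 also: antagonist potency measured as reduced agonist-driven arrestin aggregation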
Chain of G-protein coupled receptor 55 (Q9Y2T6 whole entry): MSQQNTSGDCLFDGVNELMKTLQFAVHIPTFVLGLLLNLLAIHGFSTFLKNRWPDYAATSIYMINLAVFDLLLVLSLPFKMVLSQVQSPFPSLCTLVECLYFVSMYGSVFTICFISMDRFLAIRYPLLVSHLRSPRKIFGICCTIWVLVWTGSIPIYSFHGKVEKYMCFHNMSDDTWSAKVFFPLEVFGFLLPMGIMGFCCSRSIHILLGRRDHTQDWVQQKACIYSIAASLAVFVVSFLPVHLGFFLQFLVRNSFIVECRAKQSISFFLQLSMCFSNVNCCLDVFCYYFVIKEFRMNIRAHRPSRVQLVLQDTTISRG

Integrin alpha-L = Integrin alpha-L (Mus musculus, UniProt P24063); experiment: modulators of CD8 T cell-vesicle binding, dose response, powder samples, mouse 2C CD8+ cells (AID 504565); type: functional
CAAX prenyl protease 1 = CAAX prenyl protease 1 (Saccharomyces cerevisiae S288c, UniProt P47154); experiment: yeast CAAX protease Ste24 inhibition – biochemical, S. cerevisiae, plate reader, cherry-pick, dose response (AID 488815)
Chain of CAAX prenyl protease 1 (P47154 whole entry): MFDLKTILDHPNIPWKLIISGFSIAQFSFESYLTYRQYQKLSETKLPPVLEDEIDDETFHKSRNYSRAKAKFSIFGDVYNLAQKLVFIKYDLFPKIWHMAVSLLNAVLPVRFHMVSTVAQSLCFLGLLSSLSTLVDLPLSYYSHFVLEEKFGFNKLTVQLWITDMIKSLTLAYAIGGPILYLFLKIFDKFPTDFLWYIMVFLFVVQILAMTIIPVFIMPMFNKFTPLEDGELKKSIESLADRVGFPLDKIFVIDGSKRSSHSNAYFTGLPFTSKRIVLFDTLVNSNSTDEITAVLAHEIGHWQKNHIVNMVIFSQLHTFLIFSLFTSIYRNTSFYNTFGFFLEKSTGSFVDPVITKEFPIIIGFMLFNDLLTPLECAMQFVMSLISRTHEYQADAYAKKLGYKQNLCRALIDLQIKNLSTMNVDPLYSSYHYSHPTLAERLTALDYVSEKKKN

[16] = target: T3, Intestinal-type alkaline phosphatase (Homo sapiens, UniProt P09923); experiment: human intestinal alkaline phosphatase activators, dose response, biochemical, luminescence, uHTS hits (AID 463120); type: functional
T3 sequence (P09923 whole entry): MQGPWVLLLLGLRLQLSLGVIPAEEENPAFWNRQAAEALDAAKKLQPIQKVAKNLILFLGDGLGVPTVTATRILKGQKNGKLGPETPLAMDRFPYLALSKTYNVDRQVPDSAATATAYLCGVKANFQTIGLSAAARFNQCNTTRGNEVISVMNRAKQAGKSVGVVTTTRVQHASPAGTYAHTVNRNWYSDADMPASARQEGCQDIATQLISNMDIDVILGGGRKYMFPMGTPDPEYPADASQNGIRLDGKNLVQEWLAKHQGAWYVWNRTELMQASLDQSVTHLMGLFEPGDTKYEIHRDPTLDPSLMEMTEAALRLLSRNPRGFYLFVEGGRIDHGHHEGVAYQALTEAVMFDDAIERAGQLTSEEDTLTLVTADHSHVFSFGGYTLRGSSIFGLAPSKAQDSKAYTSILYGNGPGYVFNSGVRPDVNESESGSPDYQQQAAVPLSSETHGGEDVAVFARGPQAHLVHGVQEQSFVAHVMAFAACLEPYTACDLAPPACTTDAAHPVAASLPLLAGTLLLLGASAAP

[17] = target: T4, Intestinal-type alkaline phosphatase (Mus musculus, UniProt P24822); experiment: PubChem AID 488785; type: functional
T4 sequence (P24822 whole entry): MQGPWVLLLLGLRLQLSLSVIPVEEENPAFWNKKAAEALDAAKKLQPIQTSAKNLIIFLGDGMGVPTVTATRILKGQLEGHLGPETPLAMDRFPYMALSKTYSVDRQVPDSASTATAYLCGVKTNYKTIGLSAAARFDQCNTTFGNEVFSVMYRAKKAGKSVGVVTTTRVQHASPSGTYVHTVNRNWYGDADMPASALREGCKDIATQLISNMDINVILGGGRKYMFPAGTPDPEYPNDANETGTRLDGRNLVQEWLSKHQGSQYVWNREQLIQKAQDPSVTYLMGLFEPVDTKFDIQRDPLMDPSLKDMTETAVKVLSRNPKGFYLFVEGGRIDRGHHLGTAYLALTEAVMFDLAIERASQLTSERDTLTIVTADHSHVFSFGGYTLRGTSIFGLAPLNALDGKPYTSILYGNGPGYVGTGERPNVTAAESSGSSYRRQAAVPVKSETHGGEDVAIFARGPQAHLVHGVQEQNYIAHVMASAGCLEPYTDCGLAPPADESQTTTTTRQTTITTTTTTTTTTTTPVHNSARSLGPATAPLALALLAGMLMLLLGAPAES

[18] = target: T5, Alkaline phosphatase, tissue-nonspecific isozyme (Homo sapiens, UniProt P05186); experiment: TNAP enzyme inhibition by screening hits, dose response, selectivity assay for mouse IAP inhibitor project, biochemical, human TNAP, uHTS hits (AID 488906); type: functional
T5 sequence (P05186 whole entry): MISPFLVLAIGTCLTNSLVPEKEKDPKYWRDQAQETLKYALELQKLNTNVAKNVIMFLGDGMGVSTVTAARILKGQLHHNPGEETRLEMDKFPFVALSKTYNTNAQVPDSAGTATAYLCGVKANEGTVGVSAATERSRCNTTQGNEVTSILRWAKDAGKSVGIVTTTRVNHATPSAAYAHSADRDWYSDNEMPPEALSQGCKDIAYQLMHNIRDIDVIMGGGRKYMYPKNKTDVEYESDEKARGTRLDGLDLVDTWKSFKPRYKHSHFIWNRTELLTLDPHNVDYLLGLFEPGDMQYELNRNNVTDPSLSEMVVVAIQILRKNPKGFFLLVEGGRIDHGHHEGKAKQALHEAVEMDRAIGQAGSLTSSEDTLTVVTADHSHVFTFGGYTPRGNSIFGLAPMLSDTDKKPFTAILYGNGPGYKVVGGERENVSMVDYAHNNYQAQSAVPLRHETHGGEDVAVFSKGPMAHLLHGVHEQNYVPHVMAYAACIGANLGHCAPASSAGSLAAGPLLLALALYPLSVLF

[19] = target: T4, Intestinal-type alkaline phosphatase; experiment: PubChem AID 488875; type: functional
[20] = target: T3, Intestinal-type alkaline phosphatase; experiment: activation of human intestinal alkaline phosphatase – biochemical, luminescent, uHTS hits, set 2, dose response (AID 488817); type: functional;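 also: potency of activators that raise enzyme activity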
[21] = target: T3, Intestinal-type alkaline phosphatase; experiment: activation of human intestinal alkaline phosphatase – biochemical, dose response (AID 488873); type: functional
[22] = target: T5, Alkaline phosphatase, tissue-nonspecific isozyme; experiment: activation of tissue-nonspecific alkaline phosphatase – biochemical, TNAP isozyme, human IAP uHTS hits, selectivity assay for human IAP activator project, dose response (AID 488886); type: functional;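 also: potency of compounds raising TNAP activity as a selectivity check on IAP activators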
[23] = target: T6, Type-1 angiotensin II receptor (Homo sapiens, UniProt P30556); experiment: agonist activity at AGTR1 – cell-based, uHTS hits, selectivity assay for APJ receptor agonist project, dose response (AID 488865); type: functional;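 also: beta-arrestin recruitment to AT1 measured by enzyme fragment complementation luminescence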
T6 sequence (P30556 whole entry): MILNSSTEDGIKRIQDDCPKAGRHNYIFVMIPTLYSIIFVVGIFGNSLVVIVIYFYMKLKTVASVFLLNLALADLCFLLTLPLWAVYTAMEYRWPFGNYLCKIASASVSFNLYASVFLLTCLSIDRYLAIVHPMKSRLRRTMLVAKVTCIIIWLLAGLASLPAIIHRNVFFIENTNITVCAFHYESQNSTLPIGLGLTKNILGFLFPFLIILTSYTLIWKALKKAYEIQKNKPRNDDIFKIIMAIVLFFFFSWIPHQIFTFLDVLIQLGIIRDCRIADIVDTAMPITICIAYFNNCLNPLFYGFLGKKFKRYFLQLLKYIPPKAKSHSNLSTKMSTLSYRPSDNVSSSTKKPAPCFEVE

[24] = target: Sphingosine 1-phosphate receptor 4 (Homo sapiens, UniProt O95977); experiment: Fluorescence dose response cell-based high throughput screening assay for agonists of the Sphingosine 1-Phosphate Receptor 4 (S1P4). [Related pubchem assays: 1509 (Primary screen.), 1523 (Confirmation screen in triplicates.)]; type: functional
Chain of Sphingosine 1-phosphate receptor 4 (O95977 whole entry): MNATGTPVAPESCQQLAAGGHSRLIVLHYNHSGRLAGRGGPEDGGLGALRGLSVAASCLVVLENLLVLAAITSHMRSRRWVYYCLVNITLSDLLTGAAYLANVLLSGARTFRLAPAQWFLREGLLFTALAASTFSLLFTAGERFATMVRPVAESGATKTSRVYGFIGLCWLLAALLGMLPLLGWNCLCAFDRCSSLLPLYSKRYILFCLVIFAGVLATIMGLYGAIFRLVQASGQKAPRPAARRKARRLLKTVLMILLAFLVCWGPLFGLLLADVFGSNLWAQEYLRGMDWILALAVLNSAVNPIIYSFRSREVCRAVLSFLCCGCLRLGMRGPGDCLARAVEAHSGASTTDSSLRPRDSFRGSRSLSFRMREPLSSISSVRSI

[25] = target: Sphingosine 1-phosphate receptor 1 (Homo sapiens, UniProt P21453); experiment: Fluorescence-based counterscreen assay for S1P4 agonists: Cell-based dose response high throughput screening assay to identify agonists of the Sphingosine 1-Phosphate Receptor 1 (S1P1). [Related pubchem assays (depositor defined):AID1509, AID1523, AID1801, AID463107, AID463118, AID463119, AID463122, AID463123, AID463129, AID463225, AID504400, AID504460]; type: functional
[26] = viability loss of HMLE_sh_eGFP cells – cell-based, luminescence, counter-screen for HMLE_sh_ECad selective toxicity project, dose response (AID 463074); type: functional, Homo sapiens;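 also: HMLE human mammary epithelial cells expressing control shRNA against eGFP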
[27] = Luminescence Cell-Based Dose Retest to Confirm Inhibitors of Cancer Stem Cells. [Related pubchem assays (depositor defined):AID2717, AID2721]; type: functional, Homo sapiens; conditions: Homo sapiens
[28] = target: Voltage-dependent T-type calcium channel subunit alpha-1H (Homo sapiens, UniProt O95180); experiment: inhibition of CACNA1H calcium flux – cell-based, SynthLib3 library, HEK293 Cav3.2, fluorescence (AID 493041); type: functional

Cc1ccc(NC(=O)c2ccc([N+](=O)[O-])o2)cc1C
CC50 [1]: 6.87 µM (active) | CC50 [2]: 15.1 µM (active) | IC50 (Jurkat): 6.86 µM (active) | EC50 [3]: 14.2 µM (active) | IC50 (HEK293 [4]): 38.6 µM (inactive) | CC50 [5]: 16.2 µM (active) | IC50 (HEK293 [6]): 47.3 µM (inactive) | IC50 (cells): 0.7 µM (active) | EC50 [7]: 1.87 µM (active)

CC1=N/C(=C\c2ccc([N+](=O)[O-])cc2)C(=O)N1c1ccc(Cl)cc1
AC50 (Cytochrome P450 2C19): inconclusive | AC50 (Cytochrome P450 2D6): inconclusive

Cn1c(=O)c2nc(O)cnc2n(C)c1=S
AC50 [8]: 4.26 µM (active) | AC50 [9]: 45.3 µM (active)

O=C1C(c2ccncc2)N(CCC2=CCCCC2)C(=O)CN1C1CCCCC1 (configuration not stated)
IC50 (Coagulation factor XII): > 50 µM (inactive)

CC1CCCN(C(=O)Cc2cn(Cc3cccc(Cl)c3)c3ccccc23)C1 (configuration not stated)
EC50 [10]: > 60 µM (not active) | EC50 [11]: 1.79 µM (active) | EC50 [12]: 2.81 µM (active) | EC50 [13]: 2.81 µM (active)

O=C(c1ccc2c(c1)N(Cc1ccc(F)cc1)C(=O)CS2)N1CCOCC1
AC50 (Cytochrome P450 3A4): 25.1 µM (inconclusive) | AC50 (Cytochrome P450 1A2): inconclusive

COc1ccc(-c2csc(Nc3ccc(S(=O)(=O)Nc4cc(OC)nc(OC)n4)cc3)n2)cc1
CC50 [14]: 15.2 µM (active) | IC50 [15]: 4.76 µM (active)

Cc1cc(C)n(C(=O)c2sc3cc(F)ccc3c2Cl)n1
EC50 (Integrin alpha-L): 0.299 µM (active)

CCN=C(S)NNC(=O)CCn1cc(C)cn1
AC50 (CAAX prenyl protease 1): 32.4 µM (active)

CCn1nc(C)c(CN2CCC(C(=O)Nc3cccc(-c4cccc(F)c4)c3)CC2)c1C
EC50 [16]: 59.8 µM (active) | IC50 [17]: 8.35 µM (active) | IC50 [18]: 23.4 µM (active) | EC50 [19]: 49.9 µM (active) | EC50 [20]: 52.9 µM (active) | EC50 [21]: > 100 µM (inactive) | EC50 [22]: 54 µM (active)

COC(=O)CCCC1=CC2=CC(=O)C(C)(OC(=O)c3cccs3)C(=O)C2=CN1C1CCCCC1 (configuration not stated)
EC50 [23]: > 100 µM (inactive)

CNC(=O)c1[nH]cnc1C(=O)N[C@@H](CC(C)C)C(=O)OCc1ccccc1
EC50 [24]: 5.27 µM (active) | EC50 [25]: 22 µM (inactive)

CCC(C(=O)Nc1cc(OC)c(NC(=O)c2ccccc2)cc1OC)c1ccccc1 (configuration not stated)
AC50 [26]: 51.9 µM (active) | AC50 [27]: 4.24 µM (active)

CC(Cc1nnc(NC(=O)COc2ccc(Cl)cc2Cl)o1)CC(C)(C)C (configuration not stated)
EC50 [28]: 10 µM (active)
